US20260035365A1, “1H-PYRROLO[3,2-B]PYRIDINE DERIVATIVES AS IRREVERSIBLE INHIBITORS OF MUTANT EGFR FOR THE TREATMENT OF CANCER” (Bayer Aktiengesellschaft, priority 2022, published 2026)

What was measured:
[1] = biological target: mutEGFR (D770_N771insSVD) (Homo sapiens, UniProt P00533, INS767SVD); assay: Exon20-mutant-EGFR (D770_N771insSVD) TR-FRET kinase assay; type: biochemical; conditions: 2 mM ATP, 15 min preincubation
Source text: Inhibitory activity of compounds of the present invention against an Epidermal Growth Factor Receptor (EGFR) with an insertion of the amino acids sequence SVD between D770 and N771 (SEQ ID No. 5) was quantified employing the TR-FRET based kinase activity assay as described in the following paragraphs.
A recombinant fusion protein of N-terminal Glutathion-S-Transferase (GST) and a fragment of human EGFR variant (amino acids R669 to A1210 with insertion of the amino acids sequence SVD between D770 and N771 (SEQ ID No. 5) (“EGFR ins SVD”), expressed in Sf9 insect cells and purified via affinity chromatography using Glutathion Sepharose as described above, was used as a kinase. As substrate for the kinase reaction the biotinylated peptide biotin-Ahx-AEEEEYFELVAKKK (C-terminus in amide form) (SEQ ID No. 6) was used which can be purchased e.g. form the company Biosynthan GmbH (Berlin-Buch, Germany).
For the assay 50 nl of a 100-fold concentrated solution of the test compound in DMSO was pipetted into either a black low volume 384 well microtiter plate or a black 1536 well microtiter plate (both Greiner Bio-One, Frickenhausen, Germany), 2 μl of a solution of EGFR in aqueous assay buffer [50 mM Hepes pH 7.0, 10 mM MgCl2, 1 mM dithiothreitol, 0.5 mM EGTA, 0.3 mM activated sodium ortho-vanadate, 0.005% (w/v) bovine serum albumin, 0.005% (v/v) Tween-20] were added and the mixture was incubated for 15 min at 22° C. to allow pre binding of the test compounds to the enzyme before the start of the kinase reaction. […] The concentration of EGFR was adjusted depending of the activity of the enzyme lot and was chosen appropriate to have the assay in the linear range, typical concentration was 15 pg/μl. The reaction was stopped by the addition of 3 μl of a solution of HTRF detection reagents (83.3 nM streptavidine-XL665 [Cisbio Bioassays, Codolet, France] and 1.67 nM PT66-Tb-Cryptate, a terbium-cryptate labelled anti-phospho-tyrosine antibody from Cisbio Bioassays [instead of the PT66 Tb cryptate PT66 Eu Chelate from Perkin Elmer can also be used]) in an aqueous EDTA-solution (133.3 mM EDTA, 0.2% (w/v) bovine serum albumin in 50 mM HEPES pH 7.5).
The resulting mixture was incubated 1 h at 22° C. to allow the binding of the biotinylated phosphorylated peptide to the streptavidine-XL665 and the PT66-Tb-Cryptate. Subsequently, the amount of phosphorylated substrate was evaluated by measurement of the resonance energy transfer from the PT66-Tb-Cryptate to the streptavidine-XL665. Therefore, the fluorescence emissions at 620 nm and 665 nm after excitation at 337 nm were measured in a HTRF reader, e.g. a Pherastar (BMG Labtechnologies, Offenburg, Germany) or a Viewlux (Perkin-Elmer). The ratio of the emissions at 665 nm and at […] was taken as the measure for the amount of phosphorylated substrate. The data were normalised (enzyme reaction without inhibitor=0% inhibition, all other assay components but no enzyme=100% inhibition).

[2] = biological target: mutEGFR (D770_N771insNPG, T790); assay: mutEGFR (D770_N771insNPG, T790) kinase assay; type: biochemical, human
BA/F3 (insSVD) cells = assay: Ba/F3 cell survival assay (Cell Titer-Glo), EGFR-insSVD; type: cell-based; conditions: Mus musculus, BaF3, 48 h, without IL-3, with EGF
Experimental: 293T cells from ATCC were transfected with pBABEpuro expression constructs for WT EGFR or EGFR-insSVD, or EGFR-insSVD T790M, and pCL-Eco packaging vector using Fugene-6 transfection reagent from Promega. Plates were incubated at 37° C. for 48 h. Retrovirus was harvested by filtering the media supernatant through a 0.45 μm filter.
Ba/F3 cells purchased from DSMZ were grown in RPMI+10% FBS+10 ng/mL IL-3 and infected with filtered retroviral supernatant at a 1:2 dilution. Polybrene was added to a concentration of 8 μg/mL, plates were spun for 90 min, and incubated for 16 h at 37° C. 2 μg/mL puromycin was added to the infected cells 24 h after infection and cells were continually grown in the presence of puromycin and 10 ng/mL IL-3. Following stably expressing Ba/F3 cell lines were generated: Ba/F3-EGFR-WT, Ba/F3-EGFR-insSVD, Ba/F3-EGFR-insSVD T790M, (Ba/F3-vector-control).
For cell survival assays, Ba/F3 cells were grown to a density of 1-2 million cells per mL, spun down and resuspended in media without IL-3, and replated at a concentration of 200,000-500,000 cells per mL. The cells ectopically expressing WT EGFR, EGFR-insSVD, or EGFR-insSVD T790M were plated with 10 ng/mL Millipore Culture grade EGF. The cells ectopically expressing pBABEpuro empty vector were plated with 10 ng/mL IL-3.
2 days later, cells were plated in 50 μL in a 384 well plate at a concentration of 4000 cells per well for cells assayed in the absence of IL-3 and 2000 cells per well for cells assayed in the presence of IL-3. 100 nL of compound was added to each well using a 100 nL pin head, and plates were incubated at 37° C. for 48 h.
Cell viability was measured by adding 20 μL of Cell Titer-Glo Luminescent Cell Viability Reagent diluted 1:3 in PBS. Plates were sealed with Perkin Elmer Top-Seal, inverted several times to mix, and immediately centrifuged at 1000 rpm for 2 min. Plates were incubated in low light conditions for 8-10 min and luminescence was measured.

Chain of mutEGFR (D770_N771insSVD) (P00533 with tags, fused parts or gaps INS767SVD limits assumed): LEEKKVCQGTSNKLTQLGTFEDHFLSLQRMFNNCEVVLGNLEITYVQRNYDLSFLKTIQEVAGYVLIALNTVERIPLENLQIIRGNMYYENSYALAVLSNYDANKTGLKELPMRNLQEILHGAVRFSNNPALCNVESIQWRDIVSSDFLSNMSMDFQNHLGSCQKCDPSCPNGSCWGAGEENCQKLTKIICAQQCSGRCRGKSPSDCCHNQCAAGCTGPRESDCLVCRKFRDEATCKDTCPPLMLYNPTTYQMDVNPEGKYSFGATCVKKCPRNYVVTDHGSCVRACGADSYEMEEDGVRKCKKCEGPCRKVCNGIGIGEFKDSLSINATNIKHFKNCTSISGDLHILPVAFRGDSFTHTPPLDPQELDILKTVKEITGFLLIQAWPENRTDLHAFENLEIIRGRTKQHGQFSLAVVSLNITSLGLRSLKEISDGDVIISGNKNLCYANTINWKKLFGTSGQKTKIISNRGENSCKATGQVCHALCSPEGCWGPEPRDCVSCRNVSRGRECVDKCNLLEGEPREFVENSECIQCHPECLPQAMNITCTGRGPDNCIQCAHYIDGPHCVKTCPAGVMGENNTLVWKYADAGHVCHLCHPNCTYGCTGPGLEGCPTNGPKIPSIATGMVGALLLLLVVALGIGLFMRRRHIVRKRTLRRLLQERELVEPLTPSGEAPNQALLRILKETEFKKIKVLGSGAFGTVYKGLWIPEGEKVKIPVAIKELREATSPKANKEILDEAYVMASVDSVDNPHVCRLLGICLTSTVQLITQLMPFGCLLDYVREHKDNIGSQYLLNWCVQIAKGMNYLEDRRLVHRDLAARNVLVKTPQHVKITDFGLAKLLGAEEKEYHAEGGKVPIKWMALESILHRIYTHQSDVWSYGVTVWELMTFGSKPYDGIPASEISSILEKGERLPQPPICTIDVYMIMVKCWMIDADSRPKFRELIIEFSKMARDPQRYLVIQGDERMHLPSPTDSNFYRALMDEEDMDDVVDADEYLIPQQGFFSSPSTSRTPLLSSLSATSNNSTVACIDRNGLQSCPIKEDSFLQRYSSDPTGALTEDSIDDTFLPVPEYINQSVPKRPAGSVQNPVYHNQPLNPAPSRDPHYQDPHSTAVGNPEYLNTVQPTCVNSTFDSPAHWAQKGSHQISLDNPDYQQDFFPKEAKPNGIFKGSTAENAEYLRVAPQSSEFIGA
Chain of mutEGFR (D770_N771insNPG, T790) (P00533 with tags, fused parts or gaps INS770NPG limits assumed): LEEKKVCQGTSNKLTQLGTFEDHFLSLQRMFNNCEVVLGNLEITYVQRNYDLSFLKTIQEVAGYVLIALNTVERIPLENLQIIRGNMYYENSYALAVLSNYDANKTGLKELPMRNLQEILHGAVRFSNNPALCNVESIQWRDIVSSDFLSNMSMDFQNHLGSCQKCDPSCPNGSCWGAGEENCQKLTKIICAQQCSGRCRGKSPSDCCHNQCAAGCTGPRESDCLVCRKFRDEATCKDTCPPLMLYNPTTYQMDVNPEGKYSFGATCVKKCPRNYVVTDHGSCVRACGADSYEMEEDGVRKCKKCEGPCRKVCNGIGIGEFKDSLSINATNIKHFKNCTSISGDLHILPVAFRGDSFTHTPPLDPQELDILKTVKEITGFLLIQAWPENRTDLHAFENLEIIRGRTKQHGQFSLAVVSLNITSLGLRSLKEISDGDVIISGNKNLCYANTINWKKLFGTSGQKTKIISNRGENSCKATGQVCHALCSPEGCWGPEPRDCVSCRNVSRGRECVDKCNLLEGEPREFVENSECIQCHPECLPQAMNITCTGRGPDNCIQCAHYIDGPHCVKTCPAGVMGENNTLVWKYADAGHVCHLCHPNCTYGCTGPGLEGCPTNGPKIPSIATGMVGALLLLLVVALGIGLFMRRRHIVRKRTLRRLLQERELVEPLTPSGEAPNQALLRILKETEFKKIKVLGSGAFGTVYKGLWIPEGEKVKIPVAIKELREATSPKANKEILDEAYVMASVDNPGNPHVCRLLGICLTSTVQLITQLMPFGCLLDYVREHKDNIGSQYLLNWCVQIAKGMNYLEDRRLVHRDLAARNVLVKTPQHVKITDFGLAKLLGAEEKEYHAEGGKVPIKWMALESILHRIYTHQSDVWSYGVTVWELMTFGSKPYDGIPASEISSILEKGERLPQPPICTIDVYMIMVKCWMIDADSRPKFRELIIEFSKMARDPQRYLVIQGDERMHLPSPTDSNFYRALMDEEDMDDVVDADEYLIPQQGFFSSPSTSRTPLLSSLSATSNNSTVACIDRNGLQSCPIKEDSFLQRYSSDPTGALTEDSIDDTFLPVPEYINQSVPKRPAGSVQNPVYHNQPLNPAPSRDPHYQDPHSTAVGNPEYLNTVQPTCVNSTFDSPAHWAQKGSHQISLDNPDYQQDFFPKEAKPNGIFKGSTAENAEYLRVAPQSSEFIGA

Compound | IC50 [1] [nM] | IC50 [2] [nM] | IC50 (BA/F3 (insSVD) cells) [nM]
C=CS(=O)(=O)N1CC[C@H]1COc1cnccc1-c1[nH]c2cccnc2c1-c1ccccc1 (single isomer, unassigned) [Example 141] | 0.596 | 2.21 | 231
C#CC(=O)N1CCC(Oc2cnccc2-c2[nH]c3cccnc3c2-c2cccc(Cl)c2)C1 (racemic) [Example 120, 1-[(3RS)-3-({4-[3-(3-chlorophenyl)-1H-pyrrolo[3,2-b]pyridin-2-yl]pyridin-3-yl}oxy)pyrrolidin-1-yl]prop-2-yn-1-one] | 38.5 | 98.7 | 1190
C#Cc1cccc(-c2c(-c3ccncc3OC[C@@H]3CCCN3C(=O)C=C)[nH]c3cccnc23)c1 [Example 102, 1-{(2S)-2-[({4-[3-(3-ethynylphenyl)-1H-pyrrolo[3,2-b]pyridin-2-yl]pyridin-3-yl}oxy)methyl]pyrrolidin-1-yl}prop-2-en-1-one] | 0.417 | 1.29 | 135
C=CS(=O)(=O)N(C)CCOc1cnccc1-c1[nH]c2cccnc2c1-c1cc(Cl)ccc1Cl [Example 71, N-[2-({4-[3-(2,5-dichlorophenyl)-1H-pyrrolo[3,2-b]pyridin-2-yl]pyridin-3-yl}oxy)ethyl]-N-methylethenesulfonamide] | 5.37 | 8.59 | 404
C=CC(=O)N1C[C@@H](F)C[C@H]1COc1cnccc1-c1[nH]c2cccnc2c1-c1ccccc1 [Example 114, 1-[(2S,4S)-4-fluoro-2-({[4-(3-phenyl-1H-pyrrolo[3,2-b]pyridin-2-yl)pyridin-3-yl]oxy}methyl)pyrrolidin-1-yl]prop-2-en-1-one] | 0.96 | 4.35 | 38.9
C=CS(=O)(=O)N(C)CCOc1cnccc1-c1[nH]c2cccnc2c1-c1cccc(CC)c1 [Example 63, N-[2-({4-[3-(3-ethylphenyl)-1H-pyrrolo[3,2-b]pyridin-2-yl]pyridin-3-yl}oxy)ethyl]-N-methylethenesulfonamide] | 1.44 | 5.88 | 455
C=CC(=O)N(C)CCOc1cnccc1-c1[nH]c2cccnc2c1-c1cc(C)cc(F)c1 [Example 50, N-[2-({4-[3-(3-fluoro-5-methylphenyl)-1H-pyrrolo[3,2-b]pyridin-2-yl]pyridin-3-yl}oxy)ethyl]-N-methylprop-2-enamide] | 63.7 | 131 | 1770
C=CS(=O)(=O)N1CCC(Oc2cnccc2-c2[nH]c3cccnc3c2-c2cc(C)ccc2F)C1 (racemic) [Example 126, 2-(3-{[(3RS)-1-(ethenesulfonyl)pyrrolidin-3-yl]oxy}pyridin-4-yl)-3-(2-fluoro-5-methylphenyl)-1H-pyrrolo[3,2-b]pyridine] | 13.8 | 39.8 | 807
C=CS(=O)(=O)N(C)CCOc1cnccc1-c1[nH]c2cccnc2c1-c1cccc(C(C)C)c1 [Example 70, N-methyl-N-{2-[(4-{3-[3-(propan-2-yl)phenyl]-1H-pyrrolo[3,2-b]pyridin-2-yl}pyridin-3-yl)oxy]ethyl}ethenesulfonamide] | 5.33 | 46.6 | 749
C=CC(=O)N1CC[C@H]1COc1cnccc1-c1[nH]c2cccnc2c1-c1ccccc1 (single isomer, unassigned) [Example 139] | 120 | 492 | 2520
C=CS(=O)(=O)N1CCC[C@H]1COc1cnccc1-c1[nH]c2c(C)ccnc2c1-c1cc(Cl)ccc1F [Example 138, 3-(5-chloro-2-fluorophenyl)-2-(3-{[(2S)-1-(ethenesulfonyl)pyrrolidin-2-yl]methoxy}pyridin-4-yl)-7-methyl-1H-pyrrolo[3,2-b]pyridine] | 0.582 | 1.36 | 27
C=CC(=O)N1CC[C@H]1COc1cnccc1-c1[nH]c2cccnc2c1-c1cccc(C(F)(F)F)c1 (single isomer, unassigned) [Example 143] | 129 | 678 | 3840
C=CC(=O)N1CCC1(C)COc1cnccc1-c1[nH]c2cccnc2c1-c1cccc(C(F)(F)F)c1 (centres unmarked) [Example 147, 1-[(2IRS)-2-methyl-2-{[(4-{3-[3-(trifluoromethyl)phenyl]-1H-pyrrolo[3,2-b]pyridin-2-yl}pyridin-3-yl)oxy]methyl}azetidin-1-yl]prop-2-en-1-one] | 699 | 3680 | 6530
C=CC(=O)N1CCC[C@H]1COc1cnccc1-c1[nH]c2cccnc2c1-c1ccccc1Cl [Example 88, 1-{(2S)-2-[({4-[3-(2-chlorophenyl)-1H-pyrrolo[3,2-b]pyridin-2-yl]pyridin-3-yl}oxy)methyl]pyrrolidin-1-yl}prop-2-en-1-one] | 1.89 | 10.7 | 166
C=CS(=O)(=O)N(C)CCOc1cnccc1-c1[nH]c2cccnc2c1-c1cc(C(F)(F)F)ccc1F [Example 59, N-{2-[(4-{3-[2-fluoro-5-(trifluoromethyl)phenyl]-1H-pyrrolo[3,2-b]pyridin-2-yl}pyridin-3-yl)oxy]ethyl}-N-methylethenesulfonamide] | 0.499 | 1.6 | 76.4
C=CC(=O)N1CCC[C@H]1COc1cnccc1-c1[nH]c2c(C)ccnc2c1-c1cc(Cl)ccc1F [Example 137, 1-{(2S)-2-[({4-[3-(5-chloro-2-fluorophenyl)-7-methyl-1H-pyrrolo[3,2-b]pyridin-2-yl]pyridin-3-yl}oxy)methyl]pyrrolidin-1-yl}prop-2-en-1-one] | 0.724 | 1.55 | 25.1
C=CS(=O)(=O)N1CC[C@@H]1COc1cnccc1-c1[nH]c2cccnc2c1-c1ccccc1 (single isomer, unassigned) [Example 142] | < 0.0725 | 0.262 | 16
C=CC(=O)N1C[C@@H](C)C[C@H]1COc1cnccc1-c1[nH]c2cccnc2c1-c1ccccc1 [Example 110, 1-[(2S,4S)-4-methyl-2-({[4-(3-phenyl-1H-pyrrolo[3,2-b]pyridin-2-yl)pyridin-3-yl]oxy}methyl)pyrrolidin-1-yl]prop-2-en-1-one] | 1.27 | 5.97 | 37.5
C=CC(=O)N1CCCC[C@H]1COc1cnccc1-c1[nH]c2cccnc2c1-c1ccccc1 [Example 130, 1-[(2S)-2-({[4-(3-phenyl-1H-pyrrolo[3,2-b]pyridin-2-yl)pyridin-3-yl]oxy}methyl)piperidin-1-yl]prop-2-en-1-one] | 337 | – | 1620
